Consider four compounds from ChEMBL document CHEMBL1201862, “PubChem BioAssay data set” (2004).

The target of assay [1] is T1, Serine/threonine-protein phosphatase (Candida dubliniensis (strain CD36 / CBS 7987 / NCPF 3949 / NRRLY-17841) (Yeast), UniProt B9W6M3).
T1 sequence (B9W6M3 whole entry): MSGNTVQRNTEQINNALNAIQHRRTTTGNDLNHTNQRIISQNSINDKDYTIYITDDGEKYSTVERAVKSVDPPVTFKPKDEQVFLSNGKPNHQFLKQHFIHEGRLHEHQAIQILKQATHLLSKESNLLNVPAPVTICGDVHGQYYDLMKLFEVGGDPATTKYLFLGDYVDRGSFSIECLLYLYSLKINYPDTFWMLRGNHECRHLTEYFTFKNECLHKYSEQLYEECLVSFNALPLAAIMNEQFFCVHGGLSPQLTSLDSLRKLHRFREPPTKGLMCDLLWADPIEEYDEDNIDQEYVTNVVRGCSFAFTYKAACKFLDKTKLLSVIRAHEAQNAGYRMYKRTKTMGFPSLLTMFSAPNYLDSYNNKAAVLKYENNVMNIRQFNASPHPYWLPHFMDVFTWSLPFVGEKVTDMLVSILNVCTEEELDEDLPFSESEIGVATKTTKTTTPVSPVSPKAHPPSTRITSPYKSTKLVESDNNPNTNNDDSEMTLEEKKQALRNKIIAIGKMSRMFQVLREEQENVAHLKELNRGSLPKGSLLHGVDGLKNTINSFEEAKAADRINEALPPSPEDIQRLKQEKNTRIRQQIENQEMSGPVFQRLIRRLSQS
Put plainly: blockers of CaCl2-induced CDRE-lacZ signaling – S. cerevisiae, luminescence, secondary, dose response (AID 2388).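 Also: yeast reporter cells carrying a calcineurin-responsive lacZ construct stimulated with calcium chloride; luminescent beta-galactosidase reporter signal in whole cells rather than isolated phosphatase activity; potency for inhibition where a drop in reporter signal means calcineurin blockade.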 It counts as functional, cell-based.

A further assay deals with Streptococcus. Put plainly: GAS UMAA2166 growth inhibition – luminescence, BacTiterGlo, counter-screen for streptokinase expression inhibitor project, dose response (AID 1915).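 Also: potency for reduction of bacterial viability or growth.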 It is filed as functional, organism-based.
For assay [2], the system named is Streptococcus sp. 'group A'. Nature of the assay: Streptococcus pyogenes SK(-)GAS viability under kanamycin – luminescence, BacTiterGlo, confirmation, counter-screen for streptokinase expression inhibitor project, dose response (AID 1900). It is filed as functional, organism-based.
Assay [3] in a line: fluconazole-exposed Candida albicans growth modulators – fluorescence, retest, confirmation (AID 2467). It is filed as functional, cell-based.
The next assay addresses T2, Streptokinase A (Streptococcus pyogenes serotype M1, UniProt P10520).
T2 sequence (P10520 whole entry): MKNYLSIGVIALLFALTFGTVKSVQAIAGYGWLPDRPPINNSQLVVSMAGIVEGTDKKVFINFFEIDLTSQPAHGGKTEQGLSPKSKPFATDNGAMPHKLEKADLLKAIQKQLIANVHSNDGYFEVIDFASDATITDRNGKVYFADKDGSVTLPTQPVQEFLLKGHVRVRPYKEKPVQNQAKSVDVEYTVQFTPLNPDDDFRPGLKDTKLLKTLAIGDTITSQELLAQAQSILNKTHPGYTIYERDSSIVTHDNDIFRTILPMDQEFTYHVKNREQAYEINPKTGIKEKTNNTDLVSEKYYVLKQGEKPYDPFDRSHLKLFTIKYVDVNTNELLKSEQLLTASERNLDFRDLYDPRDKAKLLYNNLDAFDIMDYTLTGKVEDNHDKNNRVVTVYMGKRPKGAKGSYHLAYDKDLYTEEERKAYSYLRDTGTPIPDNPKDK
Put plainly: viability-normalized secreted streptokinase activity reduction – plasminogen activation absorbance, OD405, dose response (AID 1914).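 Also: secreted streptokinase activity via plasminogen activation per viability signal from cell pellet.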 It is filed as functional, Streptococcus pyogenes M1 GAS.

A short description of assay [4]: NIH-3T3 fibroblast cytotoxicity, dose response, cytotoxicity control, cell-based, fluorescence, Alamar Blue, secondary assay (AID 2327).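 Also: NIH-3T3 mouse fibroblasts cultured with fluconazole at 8 µg/mL.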 It counts as functional.
Assay [5] has as its target T3, High affinity choline transporter 1 (Homo sapiens, UniProt Q9GZV3).
T3 sequence (Q9GZV3 whole entry): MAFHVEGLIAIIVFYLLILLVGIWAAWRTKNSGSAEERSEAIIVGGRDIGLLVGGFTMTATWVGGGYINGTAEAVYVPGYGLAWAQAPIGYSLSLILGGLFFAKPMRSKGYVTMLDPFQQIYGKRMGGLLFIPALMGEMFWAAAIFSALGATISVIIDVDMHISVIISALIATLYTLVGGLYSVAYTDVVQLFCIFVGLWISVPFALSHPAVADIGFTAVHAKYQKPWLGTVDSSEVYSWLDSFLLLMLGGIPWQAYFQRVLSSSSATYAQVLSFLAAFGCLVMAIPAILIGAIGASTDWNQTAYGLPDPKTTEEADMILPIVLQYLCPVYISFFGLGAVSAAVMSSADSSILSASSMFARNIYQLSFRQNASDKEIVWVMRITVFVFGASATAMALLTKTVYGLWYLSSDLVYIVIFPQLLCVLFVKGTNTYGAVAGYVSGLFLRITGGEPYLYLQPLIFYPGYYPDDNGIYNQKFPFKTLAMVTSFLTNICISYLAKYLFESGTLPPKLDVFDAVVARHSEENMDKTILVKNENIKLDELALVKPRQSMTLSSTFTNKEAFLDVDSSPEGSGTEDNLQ
Nature of the assay: human choline transporter blockers, potency – cell-based, 5-point CRC, membrane potential dye, dose response (AID 504840). It is filed as functional.

Assay [6] can be described thus: Luminescence Cell-Based Dose Retest to Confirm Inhibitors of Cancer Stem Cells. [Related pubchem assays (depositor defined):AID2717, AID2721]. The following applies: Homo sapiens. It counts as functional.
Assay [7] deals with ATP-dependent molecular chaperone HSP82 (Candida albicans (strain WO-1) (Yeast), UniProt C4YTQ8). Nature of the assay: steroid-induced GRE reporter decrease in yeast – S. cerevisiae, luminescence, Hsp90 inhibitor project, dose response (AID 2400).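 Also: beta-galactosidase luminescence from glucocorticoid response element reporter as proxy for Hsp90 function; inhibitor potency where signal loss means Hsp90 inhibition.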 It counts as functional, cell-based.
The subject of another assay is HEK293. Nature of the assay: cells. To be noted: Homo sapiens.
The next assay deals with Tumor necrosis factor (Homo sapiens, UniProt P01375). Nature of the assay: analog potency on TNFa NF-kB signaling – cell-based, revised, SAR follow-up (AID 2337). It is filed as functional.
Assay [8] has as its target T4, Nucleotide-binding oligomerization domain-containing protein 1 (Homo sapiens, UniProt Q9Y239).
T4 sequence (Q9Y239 whole entry): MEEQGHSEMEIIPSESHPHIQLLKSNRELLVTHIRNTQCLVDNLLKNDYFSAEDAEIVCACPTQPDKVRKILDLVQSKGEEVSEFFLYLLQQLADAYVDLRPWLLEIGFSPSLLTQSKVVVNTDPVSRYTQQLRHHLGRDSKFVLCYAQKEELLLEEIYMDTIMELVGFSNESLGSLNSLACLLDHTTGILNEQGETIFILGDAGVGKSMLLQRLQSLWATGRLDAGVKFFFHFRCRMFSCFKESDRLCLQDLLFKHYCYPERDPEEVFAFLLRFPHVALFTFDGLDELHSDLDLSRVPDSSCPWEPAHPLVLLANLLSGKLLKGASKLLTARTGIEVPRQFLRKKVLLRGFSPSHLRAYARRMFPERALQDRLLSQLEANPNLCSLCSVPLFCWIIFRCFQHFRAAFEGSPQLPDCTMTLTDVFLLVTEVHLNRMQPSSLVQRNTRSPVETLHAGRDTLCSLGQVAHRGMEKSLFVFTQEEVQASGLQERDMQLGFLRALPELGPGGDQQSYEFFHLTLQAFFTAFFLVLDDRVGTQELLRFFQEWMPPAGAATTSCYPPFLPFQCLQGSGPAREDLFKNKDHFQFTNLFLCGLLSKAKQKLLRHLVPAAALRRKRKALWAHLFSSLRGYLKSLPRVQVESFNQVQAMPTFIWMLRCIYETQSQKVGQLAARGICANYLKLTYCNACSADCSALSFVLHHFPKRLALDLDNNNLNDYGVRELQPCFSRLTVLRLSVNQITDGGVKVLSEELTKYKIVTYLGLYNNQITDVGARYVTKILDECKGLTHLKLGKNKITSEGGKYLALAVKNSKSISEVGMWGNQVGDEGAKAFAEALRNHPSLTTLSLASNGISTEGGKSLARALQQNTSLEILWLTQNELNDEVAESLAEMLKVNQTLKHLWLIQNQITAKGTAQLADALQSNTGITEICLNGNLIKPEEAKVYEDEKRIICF
Put plainly: blockers of NOD1 pathway activity – revised, SAR follow-up (AID 2333). It counts as functional.

In assay [9] the target is T5, DNA repair protein RAD52 homolog (Homo sapiens, UniProt P43351).
T5 sequence (P43351 whole entry): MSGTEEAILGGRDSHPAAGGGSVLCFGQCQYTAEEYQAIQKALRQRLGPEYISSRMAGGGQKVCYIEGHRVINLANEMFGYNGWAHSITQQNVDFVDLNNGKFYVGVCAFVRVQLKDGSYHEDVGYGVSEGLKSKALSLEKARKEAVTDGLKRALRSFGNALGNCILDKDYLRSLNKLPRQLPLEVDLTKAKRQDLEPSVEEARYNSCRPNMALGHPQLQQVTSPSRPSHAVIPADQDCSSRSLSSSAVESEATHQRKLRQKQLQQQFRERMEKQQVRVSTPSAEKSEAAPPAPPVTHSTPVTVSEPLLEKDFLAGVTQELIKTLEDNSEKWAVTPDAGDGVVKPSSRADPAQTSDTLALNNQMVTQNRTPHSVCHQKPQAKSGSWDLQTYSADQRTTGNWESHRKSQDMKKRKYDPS
It is filed as functional, biochemical.

Assay [10] concerns the target Heat shock protein HSP 90-alpha (Homo sapiens, UniProt P07900). It counts as functional, organism-based.
In the next assay the test system is Vero. Put plainly: viability of Vero cells under compound – cytotoxicity control for flavivirus capping enzyme inhibitors (AID 588742). It is filed as functional. To be noted: Chlorocebus sabaeus.

Active and inactive are the calls of the source. Where only a bound is given, the exact number is not on record here.

ATP-dependent molecular chaperone HSP82, sequence (C4YTQ8 whole entry): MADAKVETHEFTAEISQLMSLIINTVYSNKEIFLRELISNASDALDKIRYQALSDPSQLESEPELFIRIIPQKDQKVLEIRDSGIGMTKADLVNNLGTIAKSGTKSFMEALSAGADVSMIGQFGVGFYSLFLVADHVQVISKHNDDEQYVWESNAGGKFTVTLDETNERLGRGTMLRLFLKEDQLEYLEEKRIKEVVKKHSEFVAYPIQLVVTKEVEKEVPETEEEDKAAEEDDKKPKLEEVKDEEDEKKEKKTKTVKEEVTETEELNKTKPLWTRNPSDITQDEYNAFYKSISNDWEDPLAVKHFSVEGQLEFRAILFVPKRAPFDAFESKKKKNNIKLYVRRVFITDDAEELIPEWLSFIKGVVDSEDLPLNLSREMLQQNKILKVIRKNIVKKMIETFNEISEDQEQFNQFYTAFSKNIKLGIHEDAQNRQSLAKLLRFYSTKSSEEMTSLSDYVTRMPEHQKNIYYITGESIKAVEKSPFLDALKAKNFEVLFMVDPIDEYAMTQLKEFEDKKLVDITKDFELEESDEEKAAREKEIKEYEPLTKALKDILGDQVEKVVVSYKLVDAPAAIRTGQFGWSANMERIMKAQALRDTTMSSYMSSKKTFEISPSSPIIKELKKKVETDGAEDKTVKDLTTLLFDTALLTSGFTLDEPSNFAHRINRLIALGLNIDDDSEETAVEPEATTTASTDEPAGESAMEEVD
Tumor necrosis factor, sequence (P01375 whole entry, the tested form may be a part): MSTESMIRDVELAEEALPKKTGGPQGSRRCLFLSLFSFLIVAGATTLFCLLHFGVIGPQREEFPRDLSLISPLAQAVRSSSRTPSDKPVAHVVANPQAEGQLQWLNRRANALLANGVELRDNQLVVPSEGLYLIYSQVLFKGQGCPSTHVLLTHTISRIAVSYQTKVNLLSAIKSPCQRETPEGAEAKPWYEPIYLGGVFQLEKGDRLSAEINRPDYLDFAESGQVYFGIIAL

In the case of `O=C(NNC1=C(C(=O)C(F)(F)F)CCC1)c1cccc(Cl)c1`, the EC50 in [1] was > 180 µM (inactive); in the assay on Streptococcus, 2.77 µM (active); in assay [2], 1.23 µM (active); in assay [3] it was 0.741 µM (active); at Streptokinase A it was > 150 µM (not active); in assay [4], > 150 µM (inactive). Moreover, the EC50 in assay [7] was 24.6 µM (active). In addition, in assay [5], the concentration for half-maximal inhibition (IC50) is 11 µM (active). Further, the half-maximal activity concentration (AC50) in assay [6] was 1.95 µM (active).

Consider `COc1ccc(NC(=O)c2ccc(CN3CCc4ccccc43)cc2)cc1`, for which the IC50 (with HEK293; on Tumor necrosis factor; in assay [8]) was > 20 µM (inactive) each time.

On to `CC(C)N1CCc2c(sc(NC(=O)c3nc4ccccc4s3)c2C(N)=O)C1`, for which, in assay [9], the AC50 was 9.55 µM (active). The EC50 was > 180 µM (inactive) in assay [1], 0.491 µM (active) in [3], > 150 µM (inactive) in [4] and 51.8 µM (active) in assay [7].

`[O-][n+]1cccc2c(Br)cc(Br)c(O)c21`: the EC50 in assay [1] was > 180 µM (inactive); in the assay on Streptococcus, 18.7 µM (active); in [2], 0.865 µM (active); in assay [3], 0.651 µM (active); on Streptokinase A, > 150 µM (not active); in assay [4], > 150 µM (inconclusive). The EC50 in assay [7] is > 160 µM (inactive). Further, in assay [10], the AC50 is 3.15 µM (active). For the same compound, the half-maximal cytotoxic concentration (CC50) in the assay with Vero is > 40 µM (active).
